Test results reported in patent US20140357720A1, “NOVEL PHYTOSPHINGOSINE DERIVATIVES, AND A COSMETIC COMPOSITION COMPRISING THE SAME FOR PREVENTING AND AMELIORATING INFLAMMATORY SKIN DISEASES AND HYPERKERATOSIS DISEASES” (THE CATHOLIC UNIVERSITY OF KOREA INDUSTRY-ACADEMIC …, priority 2011, published 2014).

Columns and labels:
mouse skin tissues = experiment: Apoptosis in skin tissues isolated from TPA-induced mice (FITC staining); format: in vivo; conditions: FIGS. 7C to 7E
Description: (§1) Therefore, in order to verify the degree of the cytotoxicity of the YG-II-6 compounds, their cytotoxicity on human-derived keratinocytes was confirmed by using the WST-1 reagent. In order to verify the effects of the compounds on the expression of proteins associated with apoptosis, the keratinocytes were treated with corresponding concentrations of the respective compound samples and stimulated with TPA for 24 hours, and the expression levels of proteins were confirmed by western blot assay. In addition, human-derived keratinocytes and primary culture skin keratinocytes were treated with the compounds, and after 24 hours, subjected to FITC staining and TUNEL assay, and the skin tissues isolated from TPA-induced mice was subjected to FITC staining.

NF-κB [1] = experiment: NF-κB luciferase reporter assay, TPA stimulation; format: cell-based; conditions: FIG. 1C
Description: (§2) Herein, in order to verify the effect of novel synthetic YG-II-6 compounds and their lead compound, phytosphingosine, on phosphorylation and degradation of IκBα, which is a protein that inhibits the activity of NF-κB by forming a complex with NF-κB, skin keratinocytes were pre-treated with respective compounds for 1 hour and then stimulated with 400 nM TPA for 15 minutes and 30 minutes, respectively. In order to verify the phosphorylation of NF-κB and the expression level of NF-κB in the cytoplasm and nucleus, skin keratinocytes were stimulated for 15 minutes and 1 hour, respectively. The results were confirmed by western blot analysis. In addition, the nuclear translocation of NF-κB was confirmed through reaction with antibodies, fluorescent labeling, and direct observation by microscopy. In order to verify the activity of the respective compounds at the transcription stage, cells were transfected with plasmids labeled with NF-κB luciferase reporter, and the luciferase activity was measured by the luciferase assay. In addition, the phosphorylation of IκBα and NF-κB was measured in the PTA-stimulated mouse skin.

NF-κB [2] = experiment: Nuclear translocation of NF-κB in TPA-stimulated skin keratinocytes (immunostaining, microscopy); format: cell-based, human; conditions: TPA stimulation, FIG. 1B
Description: as §2

[3] = tested on: human-derived keratinocytes and primary culture skin keratinocytes; experiment: Apoptosis in keratinocytes (FITC staining and TUNEL assay); format: cell-based; conditions: 24 hours, FIGS. 7C to 7E
Description: as §1

NF-κB [4] = experiment: Phosphorylation and degradation of IκBα and phosphorylation of NF-κB in TPA-stimulated skin keratinocytes (western blot); format: cell-based, human
Description: as §2

ERK1/2, p38, JNK = experiment: MAP kinase phosphorylation in TPA-stimulated skin keratinocytes (western blot); format: cell-based, human; conditions: FIG. 4
Description: In order to verify the effects of the respective compounds on MAP kinase, skin keratinocytes were treated with the respective compounds for 1 hour, and then stimulated with 400 nM TPA for 15 minutes. The level of phosphorylation was confirmed by western blot assay.

[5] = tested on: human-derived keratinocytes; experiment: Cytotoxicity on human-derived keratinocytes (WST-1 reagent); format: cell-based; conditions: WST-1, FIG. 7A
Description: as §1

[6] = overall conclusion of section 2-1

NF-κB luciferase activity increased by TPA stimulation (NF-κB [1]) | Compound | apoptosis in the mouse skin tissues (mouse skin tissues) | nuclear translocation of NF-κB (NF-κB [2]) | apoptosis in the TPA-stimulated cells [3] | activation of NF-κB (phosphorylation and degradation of IκBα) (NF-κB [4]; [6]) | phosphorylation of IκBα and NF-κB increased by TPA stimulation (NF-κB [4]; skin keratinocytes, 1 hour pre-treatment, 400 nM TPA, FIG. 1A) | inhibitory activity on phosphorylation of ERK1/2, p38, and JNK relative to the YG-II-6 compounds (ERK1/2, p38, JNK) | phosphorylation of ERK1/2, p38, and JNK (ERK1/2, p38, JNK; skin keratinocytes, 1 hour treatment, 400 nM TPA 15 minutes) | concentration at which cytotoxicity was shown [5] | inhibitory effect on the NF-κB activation, fYG-II-6 compared with mYG-II-6 (NF-κB [4]; [6])
inhibited | CCCCCCCCCCCCCC[C@@H](O)[C@@H](O)[C@@H](N)CO [phytosphingosine] | induced apoptosis | inhibited | induced apoptosis | inhibited | inhibited | relatively weaker inhibitory activity | no or little inhibitory effect | 5 to 10 µM | 
 | CCCCCCCCCCCCCC[C@@H](O)[C@@H](O)[C@H](CO)NC(=O)/C=C/C(=O)O [fYG-II-6, (E)-4-oxo-4-(((2S,3S,4R)-1,3,4-trihydroxyoctadecan-2-yl)amino)but-2-enoic acid] |  |  |  |  |  |  |  |  | relatively greater inhibitory effect than mYG-II-6
